# Reference: PMC6465675, “Design, Synthesis, Antiviral Evaluation, and SAR Studies of New 1-(Phenylsulfonyl)-1H-Pyrazol−4-yl-Methylaniline Derivatives” (Frontiers in Chemistry, 2019)
# Assays:
# [1] = in vitro; conditions: human
# [2] = system: YFV; assay: microbe, parasite or virus in culture; conditions: Yellow fever virus, BHK, read-out: YFV EC50
# [3] = in vitro; conditions: Mesocricetus auratus (hamster)
# [4] = system: BVDV; assay: microbe, parasite or virus in culture; conditions: Bovine viral diarrhea virus isolates and strains, MDBK, read-out: BVDV EC50
# [5] = in vitro; conditions: Cercopithecus aethiops (monkey), Vero76 CC50
# [6] = system: BVDV
# [7] = in vitro; conditions: Bos taurus (cattle)
# [8] = system: YFV
# [9] = system: RSV
# [10] = system: RSV; assay: microbe, parasite or virus in culture; conditions: human respiratory syncytial virus, Vero 76, read-out: RSV EC50
# [11] = system: DENV-2
# [12] = system: DENV-2; assay: microbe, parasite or virus in culture; conditions: Dengue virus, DENV2, BHK, read-out: DENV-2 EC50
smiles,measurement,setting,value
"COc1ccc(S(=O)(=O)n2cc(CNc3ccc(Br)cc3)c(-c3ccc(Br)cc3)n2)cc1 [8c, 4-Bromo-N-[(3-(4-bromophenyl)-1-((4-methoxphenyl)sulfonyl)-1H-pyrazol-4-yl)methyl]aniline]",CC50,[1],> 100 µM
same,EC50,[2],> 100 µM
same,CC50,[3],> 100 µM
same,EC50,[4],23 ± 3.5 µM
same,CC50,[5],> 100 µM
same,SI CC50/EC50 (BVDV),[6],>4.4
same,melting point,,162 to 164 °C
same,CC50,[7],> 100 µM
COc1ccc(S(=O)(=O)n2cc(CNc3ccc(Cl)cc3)c(-c3ccc(C)cc3)n2)cc1 [8j],CC50,[1],> 100 µM
same,CC50,[3],> 100 µM
same,CC50,[5],> 100 µM
same,melting point,,157 to 158 °C
same,CC50,[7],> 100 µM
"COc1ccc(S(=O)(=O)n2cc(CNc3ccc(C)cc3)c(-c3ccc(C)cc3)n2)cc1 [8l, 4-Methyl-N-[(1-((4-methoxyphenyl)sulfonyl)-3-(p-tolyl)-1H-pyrazol-4-yl)methyl]aniline]",CC50,[1],> 100 µM
same,CC50,[3],> 100 µM
same,CC50,[5],> 100 µM
same,melting point,,145 to 146 °C
same,CC50,[7],> 100 µM
"COc1ccc(S(=O)(=O)n2cc(CNc3ccc(Cl)cc3)c(-c3ccc(Cl)cc3)n2)cc1 [8f, 4-Chloro-N-[(3-(4-chlorophenyl)-1-((4-methoxyphenyl)sulfonyl)-1H-pyrazol-4-yl)methyl]aniline]",CC50,[1],> 100 µM
same,EC50,[2],16 ± 0.7 µM
same,CC50,[3],> 100 µM
same,EC50,[4],7.9 ± 0.8 µM
same,CC50,[5],> 100 µM
same,SI CC50/EC50 (BVDV),[6],>12.7
same,melting point,,158 to 159 °C
same,SI CC50/EC50 (YFV),[8],>6.25
same,CC50,[7],> 100 µM
"COc1ccc(S(=O)(=O)n2cc(CNc3ccc(C)cc3)c(-c3ccc(Br)cc3)n2)cc1 [8d, 4-Methyl-N-[(3-(4-bromophenyl)-1-((4-methoxphenyl)sulfonyl)-1H-pyrazol-4-yl)methyl]aniline]",CC50,[1],> 100 µM
same,EC50,[2],18.3 ± 1.1 µM
same,CC50,[3],> 100 µM
same,CC50,[5],100 µM
same,melting point,,164 to 166 °C
same,SI CC50/EC50 (YFV),[8],>5.5
same,CC50,[7],> 100 µM
Brc1ccc(NCc2cn(-c3ccccc3)nc2-c2ccccc2)cc1 [1c],CC50,[3],> 100 µM
"Cc1ccc(NCc2cn(S(=O)(=O)c3ccccc3)nc2-c2ccccc2)cc1 [7d, 4-Methyl-N-[(3-phenyl-1-(phenylsulfonyl)-1H-pyrazol-4-yl)methyl]aniline]",CC50,[1],> 100 µM
same,CC50,[3],> 100 µM
same,CC50,[5],≥ 100 µM
same,melting point,,199 °C
same,CC50,[7],> 100 µM
"Cc1ccc(NCc2cn(S(=O)(=O)c3ccccc3)nc2-c2ccc(Cl)cc2)cc1 [7l, 4-Methyl-N-[(3-(4-chlorophenyl)-1-(phenylsulfonyl)-1H-pyrazol-4-yl)methyl]anyline]",SI CC50/EC50 (RSV),[9],>4.2
same,CC50,[1],> 100 µM
same,EC50,[2],6.6 ± 0.6 µM
same,CC50,[3],> 100 µM
same,CC50,[5],> 100 µM
same,EC50,[10],24 ± 1 µM
same,melting point,,100 to 101 °C
same,SI CC50/EC50 (YFV),[8],>15.2
same,CC50,[7],> 100 µM
Clc1ccc(NCc2cn(-c3ccccc3)nc2-c2ccc(Br)cc2)cc1 [1l],CC50,[3],> 100 µM
same,SI CC50/EC50 (DENV-2),[11],>7.8
same,EC50,[12],12.9 ± 2.3 µM
COc1ccc(S(=O)(=O)n2cc(CNc3ccccc3)c(-c3ccc(Br)cc3)n2)cc1 [8a],CC50,[1],> 100 µM
same,CC50,[3],> 100 µM
same,EC50,[4],5.6 ± 0.8 µM
same,CC50,[5],> 100 µM
same,melting point,,131 to 134 °C
same,CC50,[7],> 100 µM
Clc1ccc(NCc2cn(-c3ccccc3)nc2-c2ccccc2)cc1 [1h],CC50,[3],> 100 µM
same,SI CC50/EC50 (DENV-2),[11],>7.7
same,EC50,[12],13 ± 5 µM
"Cc1ccc(NCc2cn(S(=O)(=O)c3ccccc3)nc2-c2ccc(C)cc2)cc1 [7p, 4-Methyl-N-[(1-(phenysulfonyl)-3-(p-tolyl)-1H-pyrazol-4-yl)methyl]aniline]",SI CC50/EC50 (RSV),[9],>8.3
same,CC50,[1],> 100 µM
same,EC50,[2],3.6 ± 0.5 µM
same,CC50,[3],> 100 µM
same,CC50,[5],> 100 µM
same,EC50,[10],12 ± 2 µM
same,melting point,,123 to 124 °C
same,SI CC50/EC50 (YFV),[8],>27.8
same,CC50,[7],> 100 µM
COc1ccc(S(=O)(=O)n2cc(CNc3ccccc3)c(-c3ccc(Cl)cc3)n2)cc1 [8e],CC50,[1],> 100 µM
same,CC50,[3],> 100 µM
same,CC50,[5],> 100 µM
same,melting point,,143 to 145 °C
same,CC50,[7],> 100 µM
COc1ccc(S(=O)(=O)n2cc(CNc3ccc(Br)cc3)c(-c3ccc(C)cc3)n2)cc1 [8k],CC50,[1],> 100 µM
same,CC50,[3],> 100 µM
same,EC50,[4],19.5 ± 1.4 µM
same,CC50,[5],> 100 µM
same,SI CC50/EC50 (BVDV),[6],>5.1
same,melting point,,151 to 153 °C
same,CC50,[7],> 100 µM
"O=S(=O)(c1ccccc1)n1cc(CNc2ccc(Br)cc2)c(-c2ccc(Cl)cc2)n1 [7k, 4-Bromo-N-[(3-(4-chlorophenyl)-1-(phenylsulfonyl)-1H-pyrazol-4-yl)methyl]aniline]",SI CC50/EC50 (RSV),[9],>7.2
same,CC50,[1],> 100 µM
same,EC50,[2],5.6 ± 0.6 µM
same,CC50,[3],> 100 µM
same,CC50,[5],> 100 µM
same,EC50,[10],13.8 ± 0.4 µM
same,melting point,,142 to 143 °C
same,SI CC50/EC50 (YFV),[8],>17.9
same,CC50,[7],> 100 µM
"O=S(=O)(c1ccccc1)n1cc(CNc2ccccc2)c(-c2ccccc2)n1 [7a, N-[(3-Phenyl-1-(phenysulfonyl)-1H-pyrazol-4-yl)methyl]aniline]",CC50,[1],> 100 µM
same,CC50,[3],> 100 µM
same,CC50,[5],> 100 µM
same,melting point,,139 °C
same,CC50,[7],> 100 µM
"COc1ccc(S(=O)(=O)n2cc(CNc3ccc(Br)cc3)c(-c3ccc(Cl)cc3)n2)cc1 [8g, 4-Bromo-N-[(3-(4-chlorophenyl)-1-((4-methoxyphenyl)sulfonyl)-1H-pyrazol-4-yl)methyl]aniline]",CC50,[1],> 100 µM
same,EC50,[2],18.6 ± 0.8 µM
same,CC50,[3],> 100 µM
same,EC50,[4],12.4 ± 0.8 µM
same,CC50,[5],> 100 µM
same,SI CC50/EC50 (BVDV),[6],>8.1
same,melting point,,169 to 171 °C
same,SI CC50/EC50 (YFV),[8],>5.4
same,CC50,[7],> 100 µM
Cc1ccc(-c2nn(-c3ccccc3)cc2CNc2ccccc2)cc1 [1a],CC50,[3],> 100 µM
same,SI CC50/EC50 (DENV-2),[11],>3.3
same,EC50,[12],30 ± 4 µM
"O=C1Nc2ccc(Cl)cc2[C@@](C#CC2CC2)(C(F)(F)F)O1 [EFV, Efavirenz, reference compound]",CC50,[1],40 ± 2.5 µM
Brc1ccc(-c2nn(-c3ccccc3)cc2CNc2ccccc2)cc1 [1b],CC50,[3],> 100 µM
same,SI CC50/EC50 (DENV-2),[11],>4.5
same,EC50,[12],22 ± 6 µM
Cc1ccc(NCc2cn(-c3ccccc3)nc2-c2ccccc2)cc1 [1m],CC50,[3],> 100 µM
same,SI CC50/EC50 (DENV-2),[11],>8.9
same,EC50,[12],11.2 ± 3.6 µM
Cc1ccc(-c2nn(-c3ccccc3)cc2CNc2ccc(Cl)cc2)cc1 [1k],CC50,[3],> 100 µM
same,SI CC50/EC50 (DENV-2),[11],>8.3
same,EC50,[12],12.1 ± 3 µM
"O=S(=O)(c1ccccc1)n1cc(CNc2ccccc2)c(-c2ccc(Cl)cc2)n1 [7i, N-[(3-(4-Chlorophenyl)-1-(phenylsulfonyl)-1H-pyrazol-4-yl)methyl]aniline]",SI CC50/EC50 (RSV),[9],>8.5
same,CC50,[1],> 100 µM
same,EC50,[2],7.2 ± 0.9 µM
same,CC50,[3],> 100 µM
same,CC50,[5],> 100 µM
same,EC50,[10],11.8 ± 2.5 µM
same,melting point,,117 to 118 °C
same,SI CC50/EC50 (YFV),[8],>13.9
same,CC50,[7],> 100 µM
Clc1ccc(-c2nn(-c3ccccc3)cc2CNc2ccc(Br)cc2)cc1 [1d],CC50,[3],> 100 µM
same,SI CC50/EC50 (DENV-2),[11],>9.1
same,EC50,[12],11 ± 0.4 µM
"COc1ccc(S(=O)(=O)n2cc(CNc3ccccc3)c(-c3ccc(C)cc3)n2)cc1 [8i, N-[(1-((4-Methoxyphenyl)sulfonyl)-3-(p-tolyl)-1H-pyrazol-4-yl)methyl]aniline]",CC50,[1],> 100 µM
same,CC50,[3],> 100 µM
same,CC50,[5],> 100 µM
same,melting point,,154 to 155 °C
same,CC50,[7],> 100 µM
"COc1ccc(S(=O)(=O)n2cc(CNc3ccc(C)cc3)c(-c3ccc(Cl)cc3)n2)cc1 [8h, 4-Methyl-N-[(3-(4-chlorophenyl)-1-((4-methoxyphenyl)sulfonyl)-1H-pyrazol-4-yl)methyl]aniline]",CC50,[1],> 100 µM
same,CC50,[3],> 100 µM
same,CC50,[5],> 100 µM
same,melting point,,169 to 171 °C
same,CC50,[7],> 100 µM
"Cc1ccc(-c2nn(S(=O)(=O)c3ccccc3)cc2CNc2ccccc2)cc1 [7m, N-[(1-(Phenylsulfonyl)-3-(p-tolyl)-1H-pyrazol-4-yl)methyl]aniline]",SI CC50/EC50 (RSV),[9],>8.0
same,CC50,[1],> 100 µM
same,EC50,[2],11.5 ± 1 µM
same,CC50,[3],> 100 µM
same,CC50,[5],> 100 µM
same,EC50,[10],12.5 ± 2.1 µM
same,melting point,,128 to 129 °C
same,SI CC50/EC50 (YFV),[8],>8.7
same,CC50,[7],> 100 µM
"Cc1ccc(-c2nn(S(=O)(=O)c3ccccc3)cc2CNc2ccc(Br)cc2)cc1 [7o, 4-Bromo-N-[(1-(phenylsulfonyl)-3-(p-tolyl)-1H-pyrazol-4-yl)methyl]aniline]",SI CC50/EC50 (RSV),[9],>7.4
same,CC50,[1],> 100 µM
same,EC50,[2],3.7 ± 1.3 µM
same,CC50,[3],> 100 µM
same,CC50,[5],> 100 µM
same,EC50,[10],13.5 ± 0.5 µM
same,melting point,,110 °C
same,SI CC50/EC50 (YFV),[8],>27.0
same,CC50,[7],> 100 µM
"Cc1ccc(-c2nn(S(=O)(=O)c3ccccc3)cc2CNc2ccc(Cl)cc2)cc1 [7n, 4-Chloro-N-[(1-(phenylsulfonyl)-3-(p-tolyl)-1H-pyrazol-4-yl)methyl]aniline]",SI CC50/EC50 (RSV),[9],>7.7
same,CC50,[1],> 100 µM
same,EC50,[2],5.1 ± 0.6 µM
same,CC50,[3],> 100 µM
same,CC50,[5],> 100 µM
same,EC50,[10],13 ± 2.8 µM
same,melting point,,115 °C
same,SI CC50/EC50 (YFV),[8],>19.6
same,CC50,[7],> 100 µM
